#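 Abbreviation: GI50, concentration required for 50% inhibition of growth. At the TGI there is no net growth.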
# Columns and labels:
# Experiment in all cases: NCI tumour cell line growth inhibition, 384-well format
# NCI-H522 lung = test system: NCI-H522 lung
# OVCAR-5 ovarian = test system: OVCAR-5 ovarian
# SR leukemia = test system: SR leukemia
# CAKI-1 renal = test system: CAKI-1 renal
# SK-MEL-28 melanoma = test system: SK-MEL-28 melanoma
# NCI-H226 lung = test system: NCI-H226 lung
# UACC-257 melanoma = test system: UACC-257 melanoma
# LOX IMVI melanoma = test system: LOX IMVI melanoma
# HCC-2998 colon = test system: HCC-2998 colon
# OVCAR-4 ovarian = test system: OVCAR-4 ovarian
# SF-268 CNS = test system: SF-268 CNS
# A498 renal = test system: A498 renal
# 786-0 renal = test system: 786-0 renal
# KM12 colon = test system: KM12 colon
# OVCAR-8 ovarian = test system: OVCAR-8 ovarian
# SN12C renal = test system: SN12C renal
# SNB-19 CNS = test system: SNB-19 CNS
# NCI-H460 NSCLC = test system: NCI-H460 NSCLC
# BT-549 breast = test system: BT-549 breast
# M14 melanoma = test system: M14 melanoma
# TK-10 renal = test system: TK-10 renal
# T-47D breast = test system: T-47D breast
# UO-31 renal = test system: UO-31 renal
# SF-539 CNS = test system: SF-539 CNS
# UACC-62 melanoma = test system: UACC-62 melanoma
# RXF 393 renal = test system: RXF 393 renal
# HS 578T breast = test system: HS 578T breast
# NCI/ADR-RES ovarian = test system: NCI/ADR-RES ovarian
# MDA-MB-435 melanoma = test system: MDA-MB-435 melanoma
# MDA-MB-468 breast = test system: MDA-MB-468 breast
# ACHN renal = test system: ACHN renal
# SNB-75 CNS = test system: SNB-75 CNS
# HCT-15 colon = test system: HCT-15 colon
# HOP-92 NSCLC = test system: HOP-92 NSCLC
# HCT-116 colon = test system: HCT-116 colon
# MCF7 breast = test system: MCF7 breast
# K-562 leukemia = test system: K-562 leukemia
# EKVX NSCLC = test system: EKVX NSCLC
# U251 glioblastoma = test system: U251 glioblastoma
# OVCAR-3 ovarian = test system: OVCAR-3 ovarian
# SK-MEL-2 melanoma = test system: SK-MEL-2 melanoma
# PC-3 prostate = test system: PC-3 prostate
# MDA-MB-231 breast = test system: MDA-MB-231 breast
# IGROV1 ovarian = test system: IGROV1 ovarian
# COLO 205 colon = test system: COLO 205 colon
# NCI-H322M lung = test system: NCI-H322M lung
# SK-MEL-5 melanoma = test system: SK-MEL-5 melanoma
smiles,measurement,setting,value
COc1cc(C)[nH]c(=O)c1CNC(=O)c1c(C)n([C@H](C)C2CCN(CC(F)(F)F)CC2)c2ccccc12,GI50,NCI-H522 lung,65.2 µM
same,TGI,NCI-H522 lung,> 100 µM
same,GI50,OVCAR-5 ovarian,> 100 µM
same,TGI,OVCAR-5 ovarian,> 100 µM
same,GI50,SR leukemia,21.5 µM
same,TGI,SR leukemia,76.5 µM
same,GI50,CAKI-1 renal,63.5 µM
same,TGI,CAKI-1 renal,> 100 µM
same,GI50,SK-MEL-28 melanoma,98.2 µM
same,TGI,SK-MEL-28 melanoma,> 100 µM
same,GI50,NCI-H226 lung,> 51.9 µM
same,TGI,NCI-H226 lung,96.9 µM
same,GI50,UACC-257 melanoma,50.3 µM
same,TGI,UACC-257 melanoma,> 100 µM
same,GI50,LOX IMVI melanoma,31.7 µM
same,TGI,LOX IMVI melanoma,94.1 µM
same,GI50,HCC-2998 colon,65.3 µM
same,TGI,HCC-2998 colon,> 100 µM
same,GI50,OVCAR-4 ovarian,45.5 µM
same,TGI,OVCAR-4 ovarian,> 100 µM
same,GI50,SF-268 CNS,39.6 µM
same,TGI,SF-268 CNS,> 68.2 µM
same,GI50,A498 renal,43.1 µM
same,TGI,A498 renal,> 100 µM
same,GI50,786-0 renal,50.6 µM
same,TGI,786-0 renal,> 100 µM
same,GI50,KM12 colon,53.8 µM
same,TGI,KM12 colon,> 100 µM
same,GI50,OVCAR-8 ovarian,> 96 µM
same,TGI,OVCAR-8 ovarian,> 100 µM
same,GI50,SN12C renal,> 80.5 µM
same,TGI,SN12C renal,> 100 µM
same,GI50,SNB-19 CNS,> 100 µM
same,TGI,SNB-19 CNS,> 100 µM
same,GI50,NCI-H460 NSCLC,54.7 µM
same,TGI,NCI-H460 NSCLC,> 100 µM
same,GI50,BT-549 breast,27.4 µM
same,TGI,BT-549 breast,> 72.6 µM
same,GI50,M14 melanoma,> 72.8 µM
same,TGI,M14 melanoma,> 100 µM
same,GI50,TK-10 renal,> 100 µM
same,TGI,TK-10 renal,> 100 µM
same,GI50,T-47D breast,29.7 µM
same,TGI,T-47D breast,> 94.1 µM
same,GI50,UO-31 renal,90.4 µM
same,TGI,UO-31 renal,> 100 µM
same,GI50,SF-539 CNS,> 100 µM
same,TGI,SF-539 CNS,> 100 µM
same,GI50,UACC-62 melanoma,37.9 µM
same,TGI,UACC-62 melanoma,> 100 µM
same,GI50,RXF 393 renal,28.3 µM
same,TGI,RXF 393 renal,79.7 µM
same,GI50,HS 578T breast,40.1 µM
same,TGI,HS 578T breast,> 100 µM
same,GI50,NCI/ADR-RES ovarian,> 100 µM
same,TGI,NCI/ADR-RES ovarian,> 100 µM
same,GI50,MDA-MB-435 melanoma,58.6 µM
same,TGI,MDA-MB-435 melanoma,> 100 µM
same,GI50,MDA-MB-468 breast,21.4 µM
same,TGI,MDA-MB-468 breast,51.3 µM
same,GI50,ACHN renal,45.4 µM
same,TGI,ACHN renal,> 100 µM
same,GI50,SNB-75 CNS,42 µM
same,TGI,SNB-75 CNS,> 100 µM
same,GI50,HCT-15 colon,67 µM
same,TGI,HCT-15 colon,> 100 µM
same,GI50,HOP-92 NSCLC,45.7 µM
same,TGI,HOP-92 NSCLC,> 100 µM
same,GI50,HCT-116 colon,66.8 µM
same,TGI,HCT-116 colon,> 100 µM
same,GI50,MCF7 breast,27.3 µM
same,TGI,MCF7 breast,> 100 µM
same,GI50,K-562 leukemia,36.3 µM
same,TGI,K-562 leukemia,> 100 µM
same,GI50,EKVX NSCLC,67.7 µM
same,TGI,EKVX NSCLC,> 100 µM
same,GI50,U251 glioblastoma,98 µM
same,TGI,U251 glioblastoma,> 100 µM
same,GI50,OVCAR-3 ovarian,34.2 µM
same,TGI,OVCAR-3 ovarian,> 96.5 µM
same,GI50,SK-MEL-2 melanoma,38.6 µM
same,TGI,SK-MEL-2 melanoma,> 100 µM
same,GI50,PC-3 prostate,55.5 µM
same,TGI,PC-3 prostate,> 100 µM
same,GI50,MDA-MB-231 breast,67.5 µM
same,TGI,MDA-MB-231 breast,> 100 µM
same,GI50,IGROV1 ovarian,44.1 µM
same,TGI,IGROV1 ovarian,> 100 µM
same,GI50,COLO 205 colon,97.3 µM
same,TGI,COLO 205 colon,> 100 µM
same,GI50,NCI-H322M lung,> 83.6 µM
same,TGI,NCI-H322M lung,> 100 µM
same,GI50,SK-MEL-5 melanoma,33.5 µM
same,TGI,SK-MEL-5 melanoma,> 65.5 µM

# Source: PubChem BioAssay (NCI)
